For test [1] the following is noted: cited from earlier work.
The test system of test [2] is angiotensin conversion enzyme (ACE). The following applies: cited from earlier work.
For test [3], the system named is enkephalinase. In words: Enkephalinase inhibition in vivo in mouse striatum (Table 1 (b)). The conditions noted are these: 30 mn after i.v. administration. An excerpt:
(§1) Dosage of `enkephalinase` activity and angiotensin convertase (ACE) activity with determination of the effect of inhibitors both in vitro and on mouses in vivo: inhibition of the same enzymes and protection of natriuretic auricular factor.
(§2) ENKEPHALINASE AND ACE INHIBITING ACTIVITIES IN IN VITRO AND IN VIVO STRIATUM
(b)Activity measured in mouse striatum 30 mn after i.v. administration
according to LlorensCortes et al., Eur. J. Pharmacol., 1985, 119, 183.

In test [4] the target is T1, ACE (angiotensin convertase) (Mus musculus, UniProt P09470).
T1 construct: Activities measured on mouse striatum membranes in vitro or 30; from tissue; host or cells: mouse striatum (membranes)
T1 sequence (P09470 35-1312): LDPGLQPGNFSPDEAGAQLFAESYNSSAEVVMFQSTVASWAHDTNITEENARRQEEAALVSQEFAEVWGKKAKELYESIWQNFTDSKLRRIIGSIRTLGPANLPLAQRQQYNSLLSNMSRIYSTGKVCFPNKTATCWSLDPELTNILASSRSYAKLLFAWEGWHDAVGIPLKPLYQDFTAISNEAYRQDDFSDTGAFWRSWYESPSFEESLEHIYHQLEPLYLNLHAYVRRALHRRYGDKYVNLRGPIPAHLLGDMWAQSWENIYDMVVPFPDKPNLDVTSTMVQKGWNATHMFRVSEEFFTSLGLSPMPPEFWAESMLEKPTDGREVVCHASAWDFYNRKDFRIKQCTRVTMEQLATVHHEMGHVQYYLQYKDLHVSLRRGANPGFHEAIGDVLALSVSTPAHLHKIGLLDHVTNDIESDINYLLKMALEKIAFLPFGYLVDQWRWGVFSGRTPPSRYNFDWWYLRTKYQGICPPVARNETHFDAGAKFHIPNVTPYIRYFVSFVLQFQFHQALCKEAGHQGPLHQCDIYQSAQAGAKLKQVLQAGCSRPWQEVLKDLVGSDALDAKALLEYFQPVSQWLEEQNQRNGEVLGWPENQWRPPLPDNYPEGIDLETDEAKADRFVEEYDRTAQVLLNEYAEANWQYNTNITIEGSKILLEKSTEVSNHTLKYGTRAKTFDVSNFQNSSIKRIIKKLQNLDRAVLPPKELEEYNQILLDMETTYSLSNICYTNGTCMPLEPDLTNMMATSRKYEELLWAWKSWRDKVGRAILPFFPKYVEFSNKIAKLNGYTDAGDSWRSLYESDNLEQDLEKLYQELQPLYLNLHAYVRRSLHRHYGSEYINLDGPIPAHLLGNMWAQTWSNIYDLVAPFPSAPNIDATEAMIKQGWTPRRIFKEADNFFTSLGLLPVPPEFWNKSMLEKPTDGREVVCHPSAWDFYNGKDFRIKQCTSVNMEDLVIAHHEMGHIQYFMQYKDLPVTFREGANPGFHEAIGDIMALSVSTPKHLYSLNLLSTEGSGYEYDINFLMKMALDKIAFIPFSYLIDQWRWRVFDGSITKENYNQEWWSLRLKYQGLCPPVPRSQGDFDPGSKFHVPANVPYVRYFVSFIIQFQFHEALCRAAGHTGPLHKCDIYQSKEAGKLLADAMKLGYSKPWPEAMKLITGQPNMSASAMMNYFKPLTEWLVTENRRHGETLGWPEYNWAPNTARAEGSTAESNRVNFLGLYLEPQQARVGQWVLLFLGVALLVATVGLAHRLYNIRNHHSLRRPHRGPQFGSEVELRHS
In words: ACE inhibition in vitro on mouse striatum membranes (Table 1 (c)). The test is classed as biochemical.
Source text: as §1, §2
(§3) (c) and (d)Activities measured on mouse striatum membranes in vitro or 30
(§4) mn after i.v. administration according to Yang and Neff, J. Neurochem, […]

The target of test [5] is T2, enkephalinase (Mus musculus, UniProt Q61391).
T2 construct: Activity measured on striatum membranes according to Llorens et al., J; from tissue; host or cells: striatum membranes
T2 sequence (Q61391 1-750): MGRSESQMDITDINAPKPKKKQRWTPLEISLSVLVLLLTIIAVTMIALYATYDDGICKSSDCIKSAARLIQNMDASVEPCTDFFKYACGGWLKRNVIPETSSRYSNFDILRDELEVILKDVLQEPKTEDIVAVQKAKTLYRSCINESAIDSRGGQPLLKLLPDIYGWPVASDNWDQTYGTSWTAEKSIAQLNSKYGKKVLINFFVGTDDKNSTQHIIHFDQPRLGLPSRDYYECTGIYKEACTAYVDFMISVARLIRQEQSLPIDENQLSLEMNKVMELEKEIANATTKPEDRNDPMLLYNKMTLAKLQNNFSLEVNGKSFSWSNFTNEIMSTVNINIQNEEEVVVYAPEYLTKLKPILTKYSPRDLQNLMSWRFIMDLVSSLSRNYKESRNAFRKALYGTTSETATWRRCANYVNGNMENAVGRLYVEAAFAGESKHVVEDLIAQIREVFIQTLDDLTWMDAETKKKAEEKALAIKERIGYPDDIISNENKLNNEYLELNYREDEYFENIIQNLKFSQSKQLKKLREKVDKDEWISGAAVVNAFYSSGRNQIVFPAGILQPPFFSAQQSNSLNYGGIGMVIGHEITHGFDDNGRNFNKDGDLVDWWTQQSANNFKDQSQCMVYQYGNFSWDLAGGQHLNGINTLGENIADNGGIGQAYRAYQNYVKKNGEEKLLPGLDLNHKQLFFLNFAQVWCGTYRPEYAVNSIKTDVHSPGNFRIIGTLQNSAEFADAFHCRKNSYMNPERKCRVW
Briefly: Enkephalinase inhibition in vitro on striatum membranes (Table 1 (a)). The test is classed as biochemical.
Source text: as §1, §2
(a)Activity measured on striatum membranes according to Llorens et al., J

Test [6] deals with T1, ACE (angiotensin convertase). In words: ACE inhibition in vivo, mouse striatum (Table 1 (d)). The following applies: mouse, iv, 0.5 h, mouse striatum, 30 mn after i.v. administration; read-out: ACE In vivo(d) (DE50, mg/kg).
Source text: as §1, §2, §3, §4

Bounds are passed on as bounds.

For `CC(=O)SCC(Cc1ccccc1)C(=O)NCC(=O)OCc1ccccc1` (racemic) [Acetorphan, (R,S) N-/2-acetylthiomethyl-1-oxo-3-phenyl propyl/-glycine benzyl ester], the dose active intraveinously entry in test [1] (i.v.) is on record as “around 1 mg/kg”.

As to `O=C(O)CNC(=O)C(CS)Cc1ccccc1` (racemic) [thiorphan], in test [2], the “inhibition of angiotensin conversion enzyme” value is on record as “less powerful inhibitor of angiotensin conversion enzyme”. Moreover, the cardiovascular activity result in test [1] (at a higher dose) is “at a higher dose, a cardiovascular activity”. For the same molecule, the “active dose systemically, times higher than Acetorphan” value in test [1] (systemically, relative to Acetorphan i.v. (around 1 mg/kg)) is “about 50 times”. Besides, in test [1] (used intraveinously or intracerebroventricularly), the analgesic properties entry is on record as “analgesic properties”.

In the case of `COC(=O)[C@H](C)NC(=O)[C@H](CSC(C)=O)Cc1ccccc1` [(5), (R) N-/2-acetylthiomethyl-1-oxo-3-phenyl propyl/-(S)-alanine methyl ester], in the test with enkephalinase [3], the “Enkephalinase In vivo(b) (DE50, mg/kg)” value is reported as 0.9 mg/kg. Moreover, the IC50 in test [4] worked out at 2000 nM; at enkephalinase [5], 3 nM. Further, in test [6], the ED50 is greater than 20 mg/kg.

Regarding `COC(=O)[C@H](C)NC(=O)[C@@H](CSC(C)=O)Cc1ccccc1` [(6), (S) N-/2-acetylthiomethyl-1-oxo-3-phenylpropyl/-(S)-alanine methyl ester], the “Enkephalinase In vivo(b) (DE50, mg/kg)” value in the test with enkephalinase [3] is listed as 0.3 mg/kg. Also, the results for the IC50 (in test [4]; on enkephalinase [5]) were 12 nM and 1.2 nM, respectively. Moreover, in test [6], the ED50 came to 4 mg/kg.

With `O=C(O)CNC(=O)[C@H](CS)Cc1ccccc1` [(R) isomer], the analgesic activity result in test [1] (intracerebral, separate enantiomers of thiorphan) was “principally to the (R) isomer”.

Consider `O=C(O)CNC(=O)[C@@H](CS)Cc1ccccc1` [(S) isomer], for which, in test [2] (separate enantiomers of thiorphan), the “ACE's inhibiting activity” value was “almost exclusively attributable to the (S) isomer”.

A word on the IC50: it is the concentration that gives 50% inhibition. A higher IC50 goes with weaker potency in that assay.

Values taken from patent US5136076A, “Process for the preparation of amino acid-derived enatiomeric compounds” (Societe Civile Bioprojet, priority 1987, dated 1992).
